Reference: article PMC8533391 (2021)

Tested on: d(GTTAATCGCTGG) double-stranded DNA 12-oligomer (DNA, duplex) GTTAATCGCTGG/CCAGCGATTAAC
Assay: UV melting at 260 nm
Details: Na+ (0.05 mM NaOH), 10 μM compound, 2.5 μM DNA, cacodylate, pH 7.2

## C(=N\[C@H]1CC[C@H](/N=C/c2nccs2)CC1)/c1nccs1
Derived from two Tm (47.4 ± 0.6, free 48.3 ± 0.3)
  ΔTm: -0.9 °C

## C(=N\[C@H]1CC[C@H](/N=C/c2nccs2)CC1)/c1nccs1.C(=N\[C@H]1CC[C@H](/N=C/c2nccs2)CC1)/c1nccs1.[Ag+].[Ag+]
Derived from two Tm (46.2 ± 0.8, free 48.3 ± 0.3)
  ΔTm: -2.1 °C
